Measured values published in PMC5965259 (Journal of medicinal chemistry, 2018).

System: bloodstream form T. brucei Lister 427
Assay: ATP–bioluminescence-based bloodstream form T. brucei cell viability assay
Conditions: Trypanosoma brucei, 48 h, read-out: Tb427 EC50

SMILES	EC50 [µM]
CNc1nc(C)cc(Nc2cc(Cl)cc(Cl)c2)n1 [Compound 24, N^4-(3,5-Dichlorophenyl)-N^2,6-dimethylpyrimidine-2,4-diamine]	2.7
Cc1cc(Nc2cc(Cl)cc(-c3ccc(C#N)cc3)c2)nc(N)n1 [Compound 96, 3′-((2-Amino-6-methylpyrimidin-4-yl)amino)-5′-chloro-[1,1′-biphenyl]-4-carbonitrile]	1
CCc1cc(Br)cc(Nc2cc(C)nc(N)n2)c1 [Compound 38, N^4-(3-Bromo-5-ethylphenyl)-6-methylpyrimidine-2,4-diamine]	5.5
Cc1cc(Nc2cc(C(=O)O)cc(C(=O)O)c2)nc(N)n1 [Compound 48, 5-((2-Amino-6-methylpyrimidin-4-yl)amino)isophthalic acid]	> 100
Cc1cc(Nc2cc(Cl)cc(-c3cc(C(F)(F)F)cc(C(F)(F)F)c3)c2)nc(N)n1 [Compound 106, N^4-(5-Chloro-3′,5′-bis(trifluoromethyl)-[1,1′-biphenyl]-3-yl)-6-methylpyrimidine-2,4-diamine]	0.53
Cc1cc(Nc2cc(F)cc(Cl)c2)nc(N)n1 [Compound 61, N^4-(3-Chloro-5-fluorophenyl)-6-methylpyrimidine-2,4-diamine]	17
Cc1cc(Nc2cc(C(=O)Nc3cc(Cl)cc(Cl)c3)cc(C(=O)Nc3cc(Cl)cc(Cl)c3)c2)nc(N)n1 [Compound 51, 5-((2-Amino-6-methylpyrimidin-4-yl)amino)-N^1,N^3-bis(3,5-dichlorophenyl)isophthalamide]	2
Nc1cnccc1Nc1cc(Cl)cc(Cl)c1 [Compound 22, N^4-(3,5-Dichlorophenyl)pyridine-3,4-diamine]	18
Cc1cc(Nc2cc(Cl)c(Cl)c(Cl)c2)nc(N)n1 [Compound 64, 6-Methyl-N^4-(3,4,5-trichlorophenyl)pyrimidine-2,4-diamine]	4.5
CCOc1cc(Br)cc(Nc2cc(C)nc(N)n2)c1 [Compound 39, N^4-(3-Bromo-5-ethoxyphenyl)-6-methylpyrimidine-2,4-diamine]	4.4
Cc1cc(Nc2cc(Cl)c(F)c(Cl)c2F)nc(N)n1 [Compound 73, N^4-(3,5-Dichloro-2,4-difluorophenyl)-6-methylpyrimidine-2,4-diamine]	10
COC(=O)c1cc(Nc2cc(C)nc(N)n2)cc(C(=O)OC)c1 [Compound 49, Dimethyl 5-((2-amino-6-methylpyrimidin-4-yl)amino)isophthalate]	42
Nc1nc(Nc2cc(Cl)cc(Cl)c2)cc(C(F)(F)F)n1 [Compound 14]	10
Nc1nc2c(c(Nc3cc(Cl)cc(Cl)c3)n1)CCC2 [Compound 15]	19
Cc1cc(Nc2ccccc2C)nc(N)n1 [Compound 77]	> 25
Cc1cc(Nc2cc(Br)cc(OCC(F)(F)F)c2)nc(N)n1 [Compound 40, N^4-(3-Bromo-5-(2,2,2-trifluoroethoxy)phenyl)-6-methylpyrimidine-2,4-diamine]	4.2
Cc1cc(Nc2cc(Cl)cc(-c3cc4ccccc4s3)c2)nc(N)n1 [Compound 114, N^4-(3-(Benzo[b]thiophen-2-yl)-5-chlorophenyl)-6-methylpyrimidine-2,4-diamine]	1.6
Cc1cc(Nc2cc(Cl)cc(-c3ccc(Cl)c(Cl)c3)c2)nc(N)n1 [Compound 103, 6-Methyl-N^4-(3′,4′,5-trichloro-[1,1′-biphenyl]-3-yl)pyrimidine-2,4-diamine]	2.9
Nc1cc(Nc2cc(Cl)cc(Cl)c2)nc(N)n1 [Compound 26, N^4-(3,5-Dichlorophenyl)pyrimidine-2,4,6-triamine]	14
Cc1cc(Nc2ccccc2Br)nc(N)n1 [Compound 79]	> 25
COc1cc(Nc2cc(C)nc(N)n2)cc(OC)c1 [Compound 47, N^4-(3,5-Dimethoxyphenyl)-6-methylpyrimidine-2,4-diamine]	41
Cc1cc(Nc2cc(Br)cc(S(F)(F)(F)(F)F)c2)nc(N)n1 [Compound 37, N^4-(3-Bromo-5-(pentafluoro-λ^6-sulfaneyl)phenyl)-6-methylpyrimidine-2,4-diamine]	0.45
Cc1cc(Nc2cc(Cl)cc(-c3ccccc3)c2)nc(N)n1 [Compound 35, N^4-(5-Chloro-[1,1′-biphenyl]-3-yl)-6-methylpyrimidine-2,4-diamine]	4.5
Cc1cc(Nc2cc(Cl)cc(-c3cncs3)c2)nc(N)n1 [Compound 115, N^4-(3-Chloro-5-(thiazol-5-yl)phenyl)-6-methylpyrimidine-2,4-diamine]	3.6
Cc1cc(Nc2cc(Cl)cc(-c3ccc(Cl)c(C(F)(F)F)c3)c2)nc(N)n1 [Compound 105, N^4-(4′,5-Dichloro-3′-(trifluoromethyl)-[1,1′-biphenyl]-3-yl)-6-methylpyrimidine-2,4-diamine]	1.5
Cc1cc(Nc2cc(Cl)cc(-c3ccsc3)c2)nc(N)n1 [Compound 113, N^4-(3-Chloro-5-(thiophen-3-yl)phenyl)-6-methylpyrimidine-2,4-diamine]	29
CC(C)c1cc(Nc2cc(Cl)cc(Cl)c2)nc(N)n1 [Compound 10]	4.7
Cc1cc(Nc2cc(Cl)cc(-c3ccc(O)cc3)c2)nc(N)n1 [Compound 98, 3′-((2-Amino-6-methylpyrimidin-4-yl)amino)-5′-chloro-[1,1′-biphenyl]-4-ol]	9.7

SMILES	EC50 [µM]
Cc1cc(Nc2cc(Cl)c(C)c(Cl)c2)nc(N)n1 [Compound 65, N^4-(3,5-Dichloro-4-methylphenyl)-6-methylpyrimidine-2,4-diamine]	4.4
Cc1cc(Nc2cc(F)cc(F)c2)nc(N)n1 [Compound 60, N^4-(3,5-Difluorophenyl)-6-methylpyrimidine-2,4-diamine]	70
Nc1cccc(Nc2cc(Cl)cc(Cl)c2)n1 [Compound 17]	96
Cc1cc(Nc2cccc(S(F)(F)(F)(F)F)c2)nc(N)n1 [Compound 54, 6-Methyl-N^4-(3-(pentafluoro-λ^6-sulfaneyl)phenyl)pyrimidine-2,4-diamine]	14
Cc1cc(Nc2cc(Cl)c(OC(F)F)c(Cl)c2)nc(N)n1 [Compound 68, N^4-(3,5-Dichloro-4-(difluoromethoxy)phenyl)-6-methylpyrimidine-2,4-diamine]	4.5
Cc1nc(N)cc(Nc2cc(Cl)cc(Br)c2)n1 [Compound 27, N^4-(3-Bromo-5-chlorophenyl)-2-methylpyrimidine-4,6-diamine]	20
Cc1cc(Nc2cc(Cl)cc(-c3ccoc3)c2)nc(N)n1 [Compound 111, N^4-(3-Chloro-5-(furan-3-yl)phenyl)-6-methylpyrimidine-2,4-diamine]	7.1
Cc1cc(Nc2cc(C(F)(F)F)cc(C(F)(F)F)c2)nc(N)n1 [Compound 46, N^4-(3,5-Bis(trifluoromethyl)phenyl)-6-methylpyrimidine-2,4-diamine]	14
COc1ccc(-c2cc(Cl)cc(Nc3cc(C)nc(N)n3)c2)cc1 [Compound 93, N^4-(5-Chloro-4′-methoxy-[1,1′-biphenyl]-3-yl)-6-methylpyrimidine-2,4-diamine]	4.5
Cc1cc(Nc2ccc(C(C)C)cc2)nc(N)n1 [Compound 87]	11
Cc1cc(Nc2ccc(C(F)(F)F)cc2)nc(N)n1 [Compound 88]	15
Cc1cc(Nc2cc(Cl)c(O)c(Cl)c2)nc(N)n1 [Compound 67, 4-((2-Amino-6-methylpyrimidin-4-yl)amino)-2,6-dichlorophenol]	13
Cc1cc(Nc2ccc(Cl)cc2C)nc(N)n1 [Compound 82]	> 25
Cc1cc(Nc2cc(Cl)cc(Cl)c2)nc(N(C)C)n1 [Compound 25, N^4-(3,5-Dichlorophenyl)-N^2,N^2,6-trimethylpyrimidine-2,4-diamine]	14
Cc1cc(N(C)c2cc(Cl)cc(Cl)c2)nc(N)n1 [Compound 28, N^4-(3,5-Dichlorophenyl)-N^4,6-dimethylpyrimidine-2,4-diamine]	38
Cc1cc(Nc2cc(Cl)cc(S(F)(F)(F)(F)F)c2)nc(N)n1 [Compound 36, N^4-(3-Chloro-5-(pentafluoro-λ^6-sulfaneyl)phenyl)-6-methylpyrimidine-2,4-diamine]	13
CC(=O)c1ccc(-c2cc(Cl)cc(Nc3cc(C)nc(N)n3)c2)cc1 [Compound 97, 1-(3′-((2-Amino-6-methylpyrimidin-4-yl)amino)-5′-chloro-[1,1′-biphenyl]-4-yl)ethan-1-one]	6.7
Cc1cc(Nc2cc(Cl)cc(-c3cnn(C)c3)c2)nc(N)n1 [Compound 116, N^4-(3-Chloro-5-(1-methyl-1H-pyrazol-4-yl)phenyl)-6-methylpyrimidine-2,4-diamine]	6.7
Cc1cc(N)cc(Nc2cc(Cl)cc(Cl)c2)n1 [Compound 19, N^2-(3,5-Dichlorophenyl)-6-methylpyridine-2,4-diamine]	13
Cc1cc(NCc2cc(Cl)cc(Cl)c2)nc(N)n1 [Compound 30, N^4-(3,5-Dichlorobenzyl)-6-methylpyrimidine-2,4-diamine]	11
Cc1cc(Nc2cc(Cl)cc(Cl)c2)cc(N)n1 [Compound 20, N^4-(3,5-Dichlorophenyl)-6-methylpyridine-2,4-diamine]	2.2
Cc1cc(NCCc2cc(Cl)cc(Cl)c2)nc(N)n1 [Compound 31, N^4-(3,5-Dichlorophenethyl)-6-methylpyrimidine-2,4-diamine]	5.7
CCc1ccc(Nc2cc(C)nc(N)n2)cc1 [Compound 86]	19
Cc1cc(Nc2cc(Cl)cc(C#N)c2)nc(N)n1 [Compound 33, 3-((2-Amino-6-methylpyrimidin-4-yl)amino)-5-chlorobenzonitrile]	12
Cc1cc(Nc2cc(Cl)cc(-c3ccc(Cl)cc3)c2)nc(N)n1 [Compound 92, N^4-(4′,5-Dichloro-[1,1′-biphenyl]-3-yl)-6-methylpyrimidine-2,4-diamine]	2.2
Cc1cc(Nc2cc(Cl)cc(-c3cccc(Cl)c3)c2)nc(N)n1 [Compound 102, N^4-(3′,5-Dichloro-[1,1′-biphenyl]-3-yl)-6-methylpyrimidine-2,4-diamine]	1.9
Cc1cc(Nc2cc(Cl)cc(C(F)(F)F)c2)nc(N)n1 [Compound 34, N^4-(3-Chloro-5-(trifluoromethyl)phenyl)-6-methylpyrimidine-2,4-diamine]	13
